Measurements: ChEMBL document CHEMBL1156500, “Characterization of the metabolic activation of hepatitis C virus nucleoside inhibitor beta-D-2'-Deoxy-2'-fluoro-2'-C-methylcytidine (PSI-6130) and identification of a novel active 5'-triphosphate species” (J Biol Chem, 2007)

System: Hepatitis C virus
Test: Inhibition of RNA synthesis activity of […]
Conditions: Hepatitis C virus subtype 1b; Con1

SMILES: Nc1ccn([C@@H]2O[C@H](COP(=O)(O)OP(=O)(O)OP(=O)(O)O)[C@@H](O)[C@H]2O)c(=O)n1
- Km: 0.22 µM
